Reference: the NIST ThermoML archive (doi:10.1021/je300405a)
Numbers after ± are expanded uncertainties.

Details: Liquid; for mass density: Vibrating tube method; for speed of sound: Pulse-echo method

CCCCCCCCCC(=O)OC [methyl decanoate]
Details | mass density, 343.15 K [kg/m3] | mass density, 353.15 K [kg/m3] | mass density, 363.15 K [kg/m3] | mass density, 373.15 K [kg/m3] | mass density, 383.15 K [kg/m3] | mass density, 393.15 K [kg/m3] | speed of sound, 343.15 K [m/s] | speed of sound, 363.15 K [m/s] | speed of sound, 383.15 K [m/s] | speed of sound, 403.15 K [m/s]
101.3 kPa | – | 822.35 ± 1 | 814.51 ± 1 | 805.43 ± 1 | 797.49 ± 1 | 788.67 ± 1 | – | – | – | –
10000 kPa | – | 831.43 ± 1.1 | 823.75 ± 1.1 | 816.05 ± 1.1 | 808.37 ± 1.1 | 800.06 ± 1.1 | – | 1138.5 ± 4.7 | 1077.4 ± 4.5 | 1017.7 ± 4.3
20000 kPa | – | 839.8 ± 1.1 | 832.39 ± 1.1 | 825.16 ± 1.1 | 818.07 ± 1.1 | 810.12 ± 1.1 | – | 1195.9 ± 5 | 1138.6 ± 4.7 | 1083.2 ± 4.5
30000 kPa | – | 847.35 ± 1.1 | 840.33 ± 1.1 | 833.45 ± 1.1 | 826.67 ± 1.1 | 819.15 ± 1.1 | – | 1247.9 ± 5.2 | 1193.5 ± 4.9 | 1141.7 ± 4.7
40000 kPa | – | 854.31 ± 1.1 | 847.71 ± 1.1 | 841.07 ± 1.1 | 834.58 ± 1.1 | 827.46 ± 1.1 | – | 1296.3 ± 5.4 | 1244.5 ± 5.2 | 1194.7 ± 5
50000 kPa | – | 860.82 ± 1.1 | 854.36 ± 1.1 | 848.03 ± 1.1 | 841.72 ± 1.1 | 834.97 ± 1.1 | – | 1341.1 ± 5.5 | 1291.3 ± 5.3 | 1242.9 ± 5.1
60000 kPa | – | 866.96 ± 1.1 | 860.65 ± 1.1 | 854.82 ± 1.1 | 848.65 ± 1.1 | 842.04 ± 1.1 | – | 1382.7 ± 5.7 | 1334.9 ± 5.5 | 1288.1 ± 5.3
70000 kPa | 879.04 ± 1.1 | 872.65 ± 1.1 | 866.47 ± 1.1 | 860.9 ± 1.1 | 855.07 ± 1.2 | 848.64 ± 1.2 | – | 1421.6 ± 5.9 | 1375.4 ± 5.7 | 1330.6 ± 5.5
80000 kPa | 884.27 ± 1.1 | 878.11 ± 1.1 | 872.03 ± 1.2 | 866.94 ± 1.2 | 861.06 ± 1.2 | 854.73 ± 1.2 | 1508.2 ± 6.2 | 1458.4 ± 6 | 1414.2 ± 5.8 | 1370.3 ± 5.7
90000 kPa | 889.44 ± 1.2 | 883.27 ± 1.2 | 877.31 ± 1.2 | 872.3 ± 1.2 | 866.74 ± 1.2 | 860.61 ± 1.2 | 1541.7 ± 6.3 | 1493.8 ± 6.1 | 1450.6 ± 6 | 1407.7 ± 5.8
100000 kPa | 894.26 ± 1.2 | 888.25 ± 1.2 | 882.47 ± 1.2 | 877.6 ± 1.2 | 872.09 ± 1.2 | 866.13 ± 1.2 | 1574.1 ± 9.6 | 1527.4 ± 9.3 | 1485.3 ± 9 | 1442.8 ± 8.8
110000 kPa | – | – | – | – | – | – | 1606 ± 9.7 | 1559.7 ± 9.5 | 1518.9 ± 9.2 | 1476.6 ± 9
120000 kPa | – | – | – | – | – | – | 1636.2 ± 9.9 | 1590.9 ± 9.7 | 1550.9 ± 9.4 | 1509.7 ± 9.2
130000 kPa | – | – | – | – | – | – | 1665.9 ± 10 | 1620.7 ± 9.8 | 1581.2 ± 9.6 | 1541.7 ± 9.4
140000 kPa | – | – | – | – | – | – | 1694 ± 10 | 1649.4 ± 10 | 1610.8 ± 9.8 | 1571.6 ± 9.6
150000 kPa | – | – | – | – | – | – | 1721.2 ± 10 | 1677.2 ± 10 | 1641 ± 10 | 1600.1 ± 9.7
170000 kPa | – | – | – | – | – | – | 1773.2 ± 11 | 1730.6 ± 10 | 1692.7 ± 10 | 1655.5 ± 10
190000 kPa | – | – | – | – | – | – | 1822 ± 11 | 1780.4 ± 11 | 1743 ± 11 | 1706.6 ± 10
210000 kPa | – | – | – | – | – | – | 1868.7 ± 11 | 1827.2 ± 11 | 1791.1 ± 11 | 1754.5 ± 11
